{"source": "patent US20050171190A1", "about": "“Substituted 5-chroman-5-YL-ethylamine compounds and their use for the treatment of glaucoma” (Alcon, Inc., priority 2002, published 2005)", "key": {"[1]": {"details": "rabbits; cited from earlier work"}, "[2]": {"target": "T1, 5-HT2C receptor (Homo sapiens, UniProt P28335)", "T1 sequence (P28335 33-458)": "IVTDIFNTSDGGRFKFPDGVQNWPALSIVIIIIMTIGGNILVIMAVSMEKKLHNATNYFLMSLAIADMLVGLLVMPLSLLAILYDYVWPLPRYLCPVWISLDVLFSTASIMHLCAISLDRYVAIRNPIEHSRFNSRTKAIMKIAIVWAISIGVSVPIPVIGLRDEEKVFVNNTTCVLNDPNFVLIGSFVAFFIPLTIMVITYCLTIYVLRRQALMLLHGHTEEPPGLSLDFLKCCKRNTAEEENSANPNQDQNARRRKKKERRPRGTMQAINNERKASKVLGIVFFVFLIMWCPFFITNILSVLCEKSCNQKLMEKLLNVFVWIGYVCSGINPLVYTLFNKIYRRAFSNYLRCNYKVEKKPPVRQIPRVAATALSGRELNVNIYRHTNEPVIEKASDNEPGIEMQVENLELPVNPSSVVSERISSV", "details": "cited from earlier work"}, "[3]": {"target": "T2, 5-HT2A Receptor (Rattus norvegicus, UniProt P14842)", "T2 construct": "endogenous in cells; host or cells: A7r5 rat vascular smooth muscle cells", "T2 sequence (P14842 whole entry)": "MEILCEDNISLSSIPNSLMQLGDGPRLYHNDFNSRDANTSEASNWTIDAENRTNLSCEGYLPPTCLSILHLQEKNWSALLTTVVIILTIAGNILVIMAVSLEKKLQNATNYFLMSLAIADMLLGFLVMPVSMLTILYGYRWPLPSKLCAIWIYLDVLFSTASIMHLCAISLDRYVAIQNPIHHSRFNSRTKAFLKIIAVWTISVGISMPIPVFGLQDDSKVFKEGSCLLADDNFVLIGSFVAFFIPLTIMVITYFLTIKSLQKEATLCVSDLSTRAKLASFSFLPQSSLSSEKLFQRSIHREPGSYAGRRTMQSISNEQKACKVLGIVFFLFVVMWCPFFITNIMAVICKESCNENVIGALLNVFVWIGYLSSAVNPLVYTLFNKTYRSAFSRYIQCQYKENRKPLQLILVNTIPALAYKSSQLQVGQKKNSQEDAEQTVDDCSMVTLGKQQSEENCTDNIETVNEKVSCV", "assay": "5-HT2 functional assay: [Ca2+]i mobilization (FLIPR)", "assay_type": "cell-based", "method": "The receptor-mediated mobilization on intracellular calcium ([Ca2+]i) was studied using the Fluorescence Imaging Plate Reader (FLIPR) instrument. Rat vascular smooth muscle cells, A7r5, were grown in a normal media of DMEM/10% FBS and 10 μg/mL gentamycin. Confluent cell monolayers were trypsinized, pelleted, and re-suspended in normal media. Cells were seeded in a 50 μL volume at a density of 20,000 cells/well in a black wall, 96-well tissue culture plate and grown for 2 days.\nOn the day of the experiment, one vial of FLIPR Calcium Assay Kit dye was re-suspended in 50 mL of a FLIPR buffer consisting of Hank's Balanced Salt Solution (HBSS), 20 mM HEPES, and 2.5 mM probenecid, pH 7.4. […]\nThe compound plate and cell plate were placed in the FLIPR instrument. At the beginning of an experimental run, a signal test was performed to check the basal fluorescence signal from the dye-loaded cells and the uniformity of the signal across the plate. The basal fluorescence was adjusted between 8000-12000 counts by modifying the exposure time, the camera F-stop, or the laser power. […] Fluorescence data were collected in real-time at 1.0 sec intervals for the first 60 secs and at 6.0 sec intervals for an additional 120 secs. Responses were measured as peak fluorescence intensity minus basal and where appropriate were expressed as a percentage of a maximum 5-HT-induced response. […]"}, "[4]": {"target": "5-HT2A Receptor", "assay": "5-HT2 receptor binding assay ([125I]DOI competition)", "parameters": "species or system rat or human", "details": "inhibition of [125I]DOI binding, cerebral cortex homogenates", "method": "Aliquots of post mortem rat or human cerebral cortex homogenates (400 μL) dispersed in 50 mM Tris-HCl buffer (pH 7.4) are incubated with [125I]DOI (80 pM final) in the absence or presence of methiothepin (10 μM final) to define total and non-specific binding, respectively, in a total volume of 0.5 mL. The assay mixture is incubated for 1 hour at 23° C. in polypropylene tubes and the assays terminated by rapid vacuum filtration over Whatman GF/B glass fiber filters previously soaked in 0.3% polyethyleneimine using ice-cold buffer. Test compounds (at different concentrations) are substituted for methiothepin. Filter-bound radioactivity is determined by scintillation spectrometry on a beta counter. The data are analyzed using a non-linear, iterative curve-fitting computer program (Bowen et al. 1995) to determine the compound affinity parameter. The concentration of the compound needed to inhibit the [125I]DOI binding by 50% of the maximum is termed the IC50 value."}, "[5]": {"details": "monkey; due to its α1A receptor activity; cited from earlier work"}, "[6]": {"target": "5-HT2A receptor (Homo sapiens, UniProt P28223)", "sequence (P28223 whole entry)": "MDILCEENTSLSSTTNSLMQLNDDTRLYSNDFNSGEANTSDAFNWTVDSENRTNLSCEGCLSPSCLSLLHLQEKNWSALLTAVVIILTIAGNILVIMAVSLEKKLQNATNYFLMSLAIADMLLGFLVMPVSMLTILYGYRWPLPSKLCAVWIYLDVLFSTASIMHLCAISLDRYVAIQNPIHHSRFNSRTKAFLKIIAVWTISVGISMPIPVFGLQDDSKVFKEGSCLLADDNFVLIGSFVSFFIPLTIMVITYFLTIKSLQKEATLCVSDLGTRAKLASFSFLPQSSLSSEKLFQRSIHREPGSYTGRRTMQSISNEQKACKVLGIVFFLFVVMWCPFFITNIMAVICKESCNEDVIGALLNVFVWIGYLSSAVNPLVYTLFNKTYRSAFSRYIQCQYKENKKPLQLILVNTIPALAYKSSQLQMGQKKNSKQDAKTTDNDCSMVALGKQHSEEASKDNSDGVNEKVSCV", "details": "cited from earlier work"}, "[7]": {"details": "drug discrimination studies; cited from earlier work"}, "[8]": {"tested_on": "5-HT2 receptors", "details": "cited from earlier work"}}, "note": "pEC50, pIC50: −log10 of the molar value. Read-outs that look alike come from different tables or passages of the source."}
{"smiles": "CCCN(CCC)C1CCc2cccc(O)c2C1", "note": "(stereo not drawn) [Compound 8-OH-DPAT, 8-hydroxy-2-(di-n-propylamino)tetralin]", "values": [{"measurement": "effect on IOP", "setting": "[1]", "result": "reduces IOP"}]}
{"smiles": "CC(N)Cc1cccc2occc12", "note": "(stereo not drawn) [2-benzofuran-4-yl-1-methylethylamine]", "values": [{"measurement": "agonist activity at the 5-HT2C receptor", "setting": "[2]", "result": "agonist activity"}]}
{"smiles": "COc1cc(CC(C)N)c(OC)cc1I", "note": "(stereo not drawn) [DOI]", "values": [{"measurement": "Efficacy (Emax, %)", "setting": "[3]; A7r5 cells, percentage of a maximum 5-HT-induced response", "result": 31, "unit": "%"}, {"measurement": "pEC50", "setting": "[3]; A7r5 rat vascular smooth muscle cells, [Ca2+]i mobilization", "result": 7.52}, {"measurement": "pIC50", "setting": "[4]", "result": 9.48}]}
{"smiles": "COc1ccccc1N1CCN(CCCNc2c(C)c(=O)n(C)c(=O)n2C)CC1", "note": "[5-methylurapidil]", "values": [{"measurement": "effect on IOP", "setting": "[5]", "result": "lowers IOP"}]}
{"smiles": "COc1cc(Br)c2c(c1CC(C)N)CCO2", "note": "(stereo not drawn) [2-(7-bromo-5-methoxy-2,3-dihydro-benzofuran-4-yl)-1-methylethylamine]", "values": [{"measurement": "affinity for the 5-HT2A receptor", "setting": "[6]", "result": "high affinity"}, {"measurement": "generalization to LSD", "setting": "[7]", "result": "generalize to LSD"}]}
{"smiles": "COc1cc(CCN)c2c(c1OC)OCC2", "note": "[2-(6,7-Dimethoxy-2,3-dihydro-benzofuran-4-yl)-ethylamine]", "values": [{"measurement": "affinity for 5-HT2 receptors", "setting": "[8]", "result": "have affinity"}]}
